Data reported in patent publication US10899988B1, “Octane hyperboosting in fuel blends” (National Technology & Engineering Solutions of Sandia, LLC, priority 2018, dated 2021).

Tests used:
[1] = ASTM D3703 test for hydroperoxides (peroxide number); format: physicochemical; details: silica column processed sample; testing range 0-50 mg/kg
Method: Potential polar contaminants, such as peroxides and hydrates, were removed from the neat prenol sample using a silica column following the protocol outlined by Mueller et al. (see, e.g., Mueller C J et al., “Diesel surrogate fuels for engine testing and chemical-kinetic modeling: compositions and properties,” Energy Fuels 2016; 30:1445-61). RON testing of this sample was conducted to confirm that these contaminants were not affecting the RON measurement. The sample containers were stored at 85% capacity and sealed with parafilm to limit peroxide formation after the silica column treatment; testing was performed within 10 days of the treatment. The peroxide number of the silica column treated sample (sample processed as described above) was tested by the ASTM […] method at SwRI. This method quantified the concentration hydroperoxides in a sample within the range of 0-50 mg/kg (ppm).

[2] = Co-optima fuel property database, cited from earlier work; for Water Solubility: measured at 25° C.

Compound | hydroperoxides (ASTM D3703) [1] | DH Vap [2] [kJ/kg] | Water Solubility [2] [mg/mL] | Energy Density [2] [mJ/L]
CC(C)=CCO [Prenol, 3-methyl-2-buten-1-ol] | non-detect | 512 | 41 | 
CCO [Ethanol] |  | 919 |  | 20.2
CC(C)O [Isopropanol] |  | 744 |  | 24.1
O=C1CCCC1 [Cyclopentanone] |  | 504 | 61 | 30.2
CC(C)CO [Isobutanol] |  | 685 |  | 26.6
n-propanol |  | 789 |  | 24.7
